By inhibition is commonly meant the drop in the measured response relative to a control, in per cent. In general, IC50 refers to the concentration that inhibits the measured activity by half.

The target of this assay is T1, human zDHHC2 (Homo sapiens, UniProt Q9UIJ5).
T1 construct: expressed in transfected cells; host or cells: HEK293T
T1 sequence (Q9UIJ5 1-367): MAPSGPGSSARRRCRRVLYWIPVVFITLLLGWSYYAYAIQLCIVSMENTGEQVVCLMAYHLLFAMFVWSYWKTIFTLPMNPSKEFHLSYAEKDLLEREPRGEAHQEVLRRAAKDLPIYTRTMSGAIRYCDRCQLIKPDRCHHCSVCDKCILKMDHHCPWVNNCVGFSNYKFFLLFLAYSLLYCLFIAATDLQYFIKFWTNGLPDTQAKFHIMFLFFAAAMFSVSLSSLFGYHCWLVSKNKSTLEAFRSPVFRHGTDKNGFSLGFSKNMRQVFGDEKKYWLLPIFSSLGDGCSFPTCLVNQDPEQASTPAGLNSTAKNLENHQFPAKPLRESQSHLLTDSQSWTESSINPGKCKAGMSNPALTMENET
As to the kind of experiment: GFP-SNAP25b S-acylation in HEK293T cells co-expressing zDHHC2, copper-catalyzed click chemistry, Western blot. Format: cell-based. Conditions: for inhibition at 25 µM: HEK-293T, compound 25 μM, 4 h preincubation + 4 h labeling, read-out: SNAP25 S-acylation inhibition (%), zDHHC2; for inhibition at 25 µM / zDHHC2-mediated substrate (SNAP25) S-acylation Hill slope / IC50: in cellulo HEK293T; for zDHHC2-mediated substrate (SNAP25) S-acylation Hill slope / IC50: Western blot; for IC50: read-out: zDHHC2-mediated substrate (SNAP25) S-acylation IC50 (95 CI); for GFP-SNAP25 S-acylation in cell-based assays, newly synthesized compounds: resynthesized (UoS) material vs original hits, Supplemental Fig. 2 (zD2, zD3, zD7, zD15, zD17). As for the experimental part: The inhibitory activity of TTZ-1 and TTZ-2 on cells expressing SNAP25 and zDHHC2 was also examined. Human embryonic kidney 293T (HEK293T) cells were transfected with plasmids encoding GFP-tagged SNAP25b and HA-tagged zDHHC2. Cells were then preincubated for 4 h with either dimethyl sulfoxide (DMSO) as a vehicle control or increasing concentrations of TTZ-1/TTZ-2 (diluted in serum-free medium) before being metabolically labeled for a further 4 h with C16:0-azide. Samples were then lysed and processed by copper-catalyzed click chemistry to reveal the extent of S-acylation.
Figure 5 Activity of TTZ-1 and TTZ-2 against SNAP25 S-acylation by human zDHHC2 expressed in mammalian cells. HEK293T cells were transfected with a plasmid encoding GFP-SNAP25b together with a plasmid encoding human zDHHC2 (+zD2) or a control plasmid pEF-BOS-HA. Cells were preincubated for 4 h with increasing concentrations of TTZ-1 (A) or TTZ-2 (B) or DMSO (as a control) before metabolic labeling with 100 μM C16:0-azide for another 4 h. Cells were lysed, and proteins having incorporated C16:0-azide were labeled by click chemistry with an alkyne-IR800 dye. Protein samples were then resolved by SDS-PAGE and transferred to nitrocellulose membranes that were probed with an anti-GFP antibody (IR680). Representative images are shown for cells treated with TTZ-1 (A) or TTZ-2 (B). Top panels, click chemistry signal (top panel, Click [IR800]) and GFP immunoblot (middle panel, GFP [IR680]). Positions of the molecular mass markers (in kilodalton) are indicated on the right side of the membranes. Bottom panels A and B, data from three independent experiments performed in duplicate were quantified, and the inhibition of GFP-SNAP25b S-acylation was determined as stated in the Experimental procedures section. Graphs show mean ± SEM of inhibition of normalized S-acylation (click signal/GFP signal) in the presence of each compound. Data were analyzed and fit to a nonlinear curve using the log(inhibitor) versus normalized response (variable slope) equation. DMSO, dimethyl sulfoxide; HA, hemagglutinin; HEK293T, human embryonic kidney 293T cell line; TTZ, tetrazole; zDHHC, zinc finger DHHC domain–containing protein.
HEK293T cells were plated on poly-D-lysine–coated 24-well plates (catalog no.: 356413; Corning BioCoat, VWR) and transfected with 2.4 μg of pEF-zDHHC2 plasmid (or the control empty plasmid pEF-BOS-HA) for the measurement of zDHHC2 autoacylation and 4.8 μl of Lipofectamine 2000 (Invitrogen). For substrate acylation, cells were transfected with 1.6 μg of pEF-zDHHC plasmid (or the control empty plasmid pEF-BOS-HA) together with 0.8 μg of EGFP-SNAP25b plasmid and 4.8 μl of Lipofectamine 2000. Twenty-four hours post-transfection, cells were washed once with PBS and preincubated with ONO or UoS compounds diluted in 250 μl of serum-free DMEM for 4 h. S-acylation labeling was then started by the addition of 50 μl of 600 μM of either unmodified palmitic acid C16:0 or C16:0-azide (final concentration of 100 μM) diluted in serum-free DMEM supplemented with 1 mg/ml fatty acid–free BSA (Sigma; catalog no.: A7030). Cells were labeled for 4 h, washed once with PBS, then lysed on ice in 100 μl of 50 mM Tris (pH 8) containing 0.5% SDS and protease inhibitors (Sigma; catalog no.: P8340). Conjugation of IR800 alkyne dye or mPEG5K alkyne to C16:0-azide was carried out for 1 h at room temperature with end-over-end rotation by adding an equal volume of freshly prepared click chemistry reaction mixture containing the following: 5 μM IRDye 800CW alkyne (catalog no.: 929-60002; Li-COR) or 200 μM of mPEG5K-alkyne (catalog no.: JKA3177; Sigma), 4 mM CuSO4 (catalog no.: 451657; Sigma), 400 μM Tris[(1-benzyl-1H-1,2,3-triazol-4-yl)methyl]amine (catalog no.: 678937; Sigma), and 8 mM ascorbic acid (catalog no.: A15613; Alpha Aesar) in distilled water. About 67 μl of 4 × SDS-PAGE sample buffer containing 100 mM DTT was then added to the 200 μl sample. […]
A general note: A western blot detects proteins with antibodies after separation by electrophoresis.

`O=C(Nc1cccc2c1OC(c1nnn[nH]1)CN2)c1ccc(OCCCCc2ccccc2)cc1` (centres unmarked) [TTZ-2, N-(2-(1H-Tetrazol-5-yl)-3,4-dihydro-2H-benzo[b][1,4]oxazin-8-yl)-4-(4-phenylbutoxy)benzamide]: the inhibition at 25 µM is 84 ± 6%; the “zDHHC2-mediated substrate (SNAP25) S-acylation Hill slope” value is recorded as 4.6; the IC50 was 18.8 µM; the “GFP-SNAP25 S-acylation in cell-based assays, newly synthesized compounds” value is “results comparable to the original hit compounds”.

For `CCCCCCCOc1ccc(C(=O)Nc2cccc3c2OC(c2nnn[nH]2)CN3)cc1` (centres unmarked) [TTZ-1, N-(2-(1H-Tetrazol-5-yl)-3,4-dihydro-2H-benzo[b][1,4]oxazin-8-yl)-4-(heptyloxy)benzamide], the inhibition at 25 µM was 113 ± 5%; the “zDHHC2-mediated substrate (SNAP25) S-acylation Hill slope” value came out at 7.6; the IC50 amounted to 14.4 µM; the “GFP-SNAP25 S-acylation in cell-based assays, newly synthesized compounds” value was “results comparable to the original hit compounds”.

For the origin of these results see PMC9558053, “Development of a novel high-throughput screen for the identification of new inhibitors of protein S-acylation” (The Journal of Biological Chemistry, 2022).
